Key:
[1] = Solubilization of zinc pyridinethione in water by DETA, DGA, PEI-1000 (visual observations); format: physicochemical
Experimental: H2 O. This 48.5 g. slurry is stirred for 1 minute. […] Also, to 0.75 g. […] H2 O. The 45.50 g. slurry is stirred for 1 minute.
**A.E. means active ingredients.

[2] = Effect of chelating/sequestering agent on biocidal activity of zinc pyridinethione; details: aliphatic polyamine, up to two-fold excess
[3] = Solubilization of zinc pyridinethione in anionic shampoo base (visual observations); format: physicochemical
[4] = Solubilization of zinc pyridinethione in amphoteric shampoo base (visual observations)
[5] = less than one part EDTA per part pyridinethione salt shows this effect; cited from earlier work

## NCCNCCN [DETA, diethylene triamine]
[1]; pH adjusted downward with HCl
  pH at which solution starts clouding up: ~9.2
[1]; pH adjusted downward with HCl, pH 8.8
  precipitation at pH 8.8: ~50%
[2]
  effect on antimicrobial activity of zinc pyridinethione: does not reduce the antimicrobial activity
[3]; anionic shampoo, pH decreased with HCl to 9.2
  Visual observation at pH 9.2: slightly cloudy
[4]; pH adjustment with HCl, smoky color at this pH
  pH down to which shampoo remains clear: ~9.3

## NCCOCCO [DGA, diglycolamine]
[1]
  Solubility of zinc pyridinethione on stirring at room temperature for 3 minutes: Less than 10%
  Visual observation: hot plate heating until 110°F.: No greater solubility. Zinc pyridinethione quickly settles
  effectiveness as solubilizing agent for heavy metal salts of pyridinethione: ineffective
[1]; 1.5% zinc pyridinethione, 3.0% solubilizer in water
  pH of solution unadjusted: 11.2
[3]
  Visual - unadjusted: Cloudy shampoo
[3]; anionic shampoo, 1.5% zinc pyridinethione, 3.0% solubilizer
  pH - unadjusted: 9.0
[3]; anionic shampoo, unadjusted pH
  zinc pyridinethione soluble (visual, unadjusted pH): < 10%
[4]; 1.5% zinc pyridinethione, 3.0% solubilizer
  pH - unadjusted: 9.6

## O=C(O)CN(CCN(CC(=O)O)CC(=O)O)CC(=O)O [ethylenediamine tetraacetic acid]
[5]
  effect on biocidal activity of zinc pyridinethione: very deleterious effect
